Patent US10023541B2, “Urea compounds and their use as enzyme inhibitors” (BIAL-PORTELA & CA, S.A., priority 2012, dated 2018)
Like-named read-outs stand apart in the source and are kept apart here.

Columns and labels:
FAAH [1] = biological target: T1, FAAH (Mus musculus, UniProt O08914); assay: In vivo protocol: FAAH activity in tissue homogenates after oral dosing of mice; settings: for Peripheral Selectivity: FAAH activity in liver divided by FAAH activity in brain, lower = more peripherally selective; for activity at 3 mg/kg / activity at 0.1 mg/kg / activity at 1 mg/kg / activity at 10 mg/kg: mouse
T1 construct: A fragment of liver, left lung lobe and brain without cerebellum were removed; from tissue; host or cells: mouse brain, liver and lung homogenates
T1 sequence (O08914 1-579): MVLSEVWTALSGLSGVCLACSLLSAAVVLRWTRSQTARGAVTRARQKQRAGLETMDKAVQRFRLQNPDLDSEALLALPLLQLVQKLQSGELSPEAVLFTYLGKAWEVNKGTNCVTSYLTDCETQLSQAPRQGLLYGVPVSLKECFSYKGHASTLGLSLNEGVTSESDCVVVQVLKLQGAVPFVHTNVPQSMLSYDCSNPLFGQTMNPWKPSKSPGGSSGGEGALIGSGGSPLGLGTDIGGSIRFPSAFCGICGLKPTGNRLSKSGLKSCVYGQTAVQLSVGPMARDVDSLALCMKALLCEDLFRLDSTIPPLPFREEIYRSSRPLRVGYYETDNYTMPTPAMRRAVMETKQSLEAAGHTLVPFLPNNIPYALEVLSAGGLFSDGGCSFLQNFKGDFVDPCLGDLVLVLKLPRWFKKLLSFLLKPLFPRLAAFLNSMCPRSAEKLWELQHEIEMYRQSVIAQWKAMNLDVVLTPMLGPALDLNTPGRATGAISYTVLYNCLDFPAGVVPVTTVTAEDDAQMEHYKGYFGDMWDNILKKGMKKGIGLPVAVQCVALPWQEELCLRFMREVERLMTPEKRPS
Procedure: In vivo testing was performed according to the protocol described below. BRh (brain homogenate) indicates inhibition in central nervous tissue, in this case, brain, and LVh (liver homogenate) indicates inhibition in peripheral tissue, in this case, liver. The controls were the reaction mix minus the test compounds. Therefore, a low value for the test compound indicates a strong inhibitor.
The animals used for experiments were male NMRI mice (weighing 27-44 g) obtained from Interfauna Ibérica (Spain). Mice were kept 5 per cage, under controlled environmental conditions (12 hr light/dark cycle and room temperature 221° C.). Food and tap water were allowed ad libitum and the experiments were all carried out during daylight hours.
[…] compounds via oral route (8 ml/kg; compound suspended in 0.5% carboxymethylcellulose (CMC) or solubilized in water) or vehicle (controls) using animal feeding stainless steel curve needles (Perfectum, U.S.A.). Fifteen minutes before sacrifice animal were anesthetized with pentobarbital 60 mg/kg administered intraperitoneally. A fragment of liver, left lung lobe and brain without cerebellum were removed and put in plastic vials containing membrane buffer (3 mM MgCl2, 1 mM EDTA, 50 mM Tris HCl pH 7.4). Tissues were stored at −30° C. until analysis.
Animals were always fasted overnight before administration of compounds except for time points of >18 h, where food was removed on the morning of day of administration and the compound was administered in the afternoon of the same day. Animals were then given water but nothing else.
Tissues were thawed on ice and were homogenized in 10 volumes of membrane buffer (3 mM MgCl2, 1 mM EDTA, 50 mM Tris HCl pH 7.4) with either Potter-Elvejhem (brains—8 strokes at 500 rpm) or Heidolph Diax (livers—2 strokes at position 5 for 20 sec with 30 sec pauses).
Total protein in tissues was determined with the BioRad Protein Assay (BioRad) using a standard curve of BSA (50-250 μg/ml).
Reaction mix (total volume of 200 μl) contained: 2 μM AEA (2 μM AEA+5 nM ^3H-AEA), 0.1% fatty acid free BSA, 15 μg (brain), 5 μg (liver) or 50 μg (lung) protein, in 1 mM EDTA, 10 mM Tris pH 7.6. After a 15 min pre-incubation period at 37° C. reaction was started by the addition of the substrate solution (cold AEA+radiolabelled AEA+BSA). Reaction was carried out for 10 min (brain and lung) or 7 min (liver) before termination by the addition of 400 μl activated charcoal suspension (8 g charcoal in 32 ml 0.5 M HCl in continuous agitation). After a 30 min incubation period at room temperature with agitation, charcoal was sedimented by centrifugation in microfuge (10 min at 13000 rpm). 200 μl of the supernatant were added to 800 μl Optiphase Supermix scintillation cocktail previously distributed in 24-well plates. Counts per minute (cpm) were determined in a MicrobetaTriLux scintillation counter.
In each assay blanks (without protein) were prepared.
The percentage of remaining enzymatic activity was calculated with respect to controls and after blank subtraction.

[2] = CYPs metabolic stability assay in MLM; format: in vitro ADME, mouse; settings: 1 h, 50 μM; for Metabolic Stability (% of Remaining) Mouse CYP+: with NADPH; for Metabolic Stability (% of Remaining) Mouse CYP−: without NADPH
Procedure: (§1) Stability of the test compounds was performed in MLM (mouse liver microsomes) or HLM (human liver microsomes) in the presence and in the absence of NADPH.
(§2) The stability was measured using the incubation mixture (100 μl total volume) contained 1 mg/ml total protein, MgCl2 5 mM and 50 mM K-phosphate buffer. Samples were incubated in the presence and in the absence of NADPH 1 mM. Reactions were pre-incubated 5 min and the reaction initiated with the compound under test (5 μM for HLM and 50 μM for MLM). Samples were incubated for 60 min in a shaking water bath at 37° C. The reaction was stopped by adding 100 μl of acetonitrile. Samples were then centrifuged, filtered and supernatant injected in HLPC-MSD. Test compounds were dissolved in DMSO and the final concentration of DMSO in the reaction was below 0.5% (v/v). At TO acetonitrile was added before adding the compound. All experiments were performed with samples in duplicate.
(§3) The stability data are given as % of remaining compound after 1 h exposure to MLM or HLM. 100% means no metabolic reaction at all and 0% corresponds to full enzymatic degradation. “CYP−” refers to the absence of cofactor (NADPH) which is essential for CYP metabolic reactions. Therefore “CYP−” can be regarded as control value. “CYP+” refers to the presence of cofactor and the enzymatic degradation may take place according to the stability of the test compound.

[3] = CYPs metabolic stability assay in HLM; format: in vitro ADME, human; settings: 1 h, 5 μM; for Metabolic Stability (% of Remaining) Human CYP+: with NADPH; for Metabolic Stability (% of Remaining) Human CYP−: without NADPH
Procedure: as §1, §2, §3

FAAH [4] = biological target: T1, FAAH; assay: ED50 determination of FAAH inhibition in liver after p.o. administration; format: in vivo; settings: po, read-out: Liver ED50 (95CI)
Excerpt: Confidence intervals (95%) are included.

FAAH [5] = biological target: T2, FAAH (Rattus norvegicus, UniProt P97612); assay: Determination of IC50 in rat brain membrane FAAH enzymatic assay (3H-AEA); format: biochemical; settings: rat brain membranes, 2 μM AEA, 15 min preincubation
T2 construct: Frozen brains from 4 Wistar rats were homogenized; from tissue; host or cells: Wistar rat brain membranes
T2 sequence (P97612 1-579): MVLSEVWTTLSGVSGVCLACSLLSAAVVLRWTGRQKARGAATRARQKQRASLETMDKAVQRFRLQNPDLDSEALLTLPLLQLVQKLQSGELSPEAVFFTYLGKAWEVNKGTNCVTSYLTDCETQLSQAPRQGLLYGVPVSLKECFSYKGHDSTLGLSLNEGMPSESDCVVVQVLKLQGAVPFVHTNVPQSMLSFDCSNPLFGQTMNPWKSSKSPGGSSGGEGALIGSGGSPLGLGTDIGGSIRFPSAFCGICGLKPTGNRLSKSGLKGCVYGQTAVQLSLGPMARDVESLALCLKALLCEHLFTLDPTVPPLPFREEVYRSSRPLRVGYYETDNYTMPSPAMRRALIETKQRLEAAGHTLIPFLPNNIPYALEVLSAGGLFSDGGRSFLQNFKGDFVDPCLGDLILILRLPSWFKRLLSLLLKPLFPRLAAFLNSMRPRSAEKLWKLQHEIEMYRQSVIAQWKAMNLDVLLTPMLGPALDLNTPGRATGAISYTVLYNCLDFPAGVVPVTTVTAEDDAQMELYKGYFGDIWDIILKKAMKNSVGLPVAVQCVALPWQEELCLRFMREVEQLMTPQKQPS
Procedure: Anandamide[ethanolamine-1-^3H-] was obtained from American Radiochemicals—with a specific activity of 60 Ci/mmol. All other reagents were obtained from Sigma-Aldrich. Optiphase Supermix was obtained from Perkin Elmer and activated charcoal was obtained from Sigma.
Frozen brains from 4 Wistar rats were homogenized in 20 ml 1 mM MgCl2, 20 mM HEPES (4-(2-hydroxyethyl)-1-piperazineethanesulfonic acid) pH 7.0 with Potter-Elvejhem (8 strokes at 500 rpm). Homogenates were centrifuged for 20 min at 36000 g at 4° C. (Beckman, 70Ti rotor). Pellets were resuspended in 15 ml of the same buffer and centrifuged under the same conditions. Pellets were resuspended in 15 ml of the same buffer and incubated for 15 min at 37° C. after which they were centrifuged for 20 min at 36000 g at 4° C. Each pellet was then resuspended in 10 ml 3 mM MgCl2, 1 mM EDTA (Ethylenediaminetetraacetic acid), 50 mM Tris (2-Amino-2-hydroxymethyl-propane-1,3-diol) pH 7.4 and protein determined with the BioRad Protein Assay (BioRad) using a standard curve of BSA (Bovine Serum Albumin) (50-250 μg/ml).
Reaction mix (total volume of 200 μl) contained: 2 μM AEA (2 μM AEA+5 nM ^3H-AEA), 0.1% fatty acid free BSA, 5 or 10 μg protein, in 1 mM EDTA, 10 mM Tris pH 7.6 and compound 1 at various concentrations. […] Counts per minute (CPM) or disintegrations per minute (DPM) were determined in a MicrobetaTriLux scintillation counter. […]

[6] = po, brain homogenate, 3 mg/kg po, 8 h, % remaining activity vs control, read-out: FAAH Activity (%) Br. h. 3 mg/kg. 8 h. po
[7] = po, liver homogenate, 3 mg/kg po, 8 h, % remaining activity vs control, read-out: FAAH Activity (%) Lv. h. 3 mg/kg. 8 h. po
[8] = 1 h, 3 mg/kg, read-out: FAAH Activity (%) mouse Liver
[9] = 8 h, 0.1 mg/kg, read-out: FAAH Activity (%) mouse Liver
[10] = 8 h, read-out: FAAH Activity (%) mouse Liver
[11] = 8 h, 3 mg/kg, read-out: FAAH Activity (%) mouse Liver

Row | Structure (SMILES) | Peripheral Selectivity (FAAH [1]; 3 mg/kg po, 8 h) | activity at 3 mg/kg (FAAH [1]; [6]) [%] | activity at 3 mg/kg (FAAH [1]; [7]) [%] | Metabolic Stability (% of Remaining) Mouse CYP+ [2] [%] | Metabolic Stability (% of Remaining) Mouse CYP− [2] [%] | Metabolic Stability (% of Remaining) Human CYP+ [3] [%] | Metabolic Stability (% of Remaining) Human CYP− [3] [%] | ED50 (FAAH [4]; Time 8 h) [mg/kg] | activity at 3 mg/kg (FAAH [1]; [8]) [%] | activity at 0.1 mg/kg (FAAH [1]; [9]) [%] | activity at 1 mg/kg (FAAH [1]; [10]) [%] | activity at 3 mg/kg (FAAH [1]; [11]) [%] | activity at 10 mg/kg (FAAH [1]; [10]) [%] | IC50 (FAAH [5]) [nM] | ED50 (FAAH [4]) [mg/kg] | factor by which most peripherally selective compound (FAAH [1]; compared with comparator compounds, 3 mg/kg po, 8 h) | fold more potent than comparator compound 2 (FAAH [1]; mouse liver, 0.1 mg/kg, 8 h post-dose)
1 | CN(C(=O)n1cnc(-c2cccc(NC(=N)N)c2)c1)C1CCCCC1 [Comparator Compound 1, N-cyclohexyl-4-(3-guanidinophenyl)-N-methyl-1H-imidazole-1-carboxamide] | 0.235 | 86.2 | 20.3 |  |  |  |  |  |  |  |  |  |  |  |  |  | 
2 | CN(C(=O)n1cnc(-c2ccc(F)c(O)c2)c1)C1CCCC1 [Comparator Compound 2, N-cyclopentyl-4-(4-fluoro-3-hydroxyphenyl)-N-methyl-1H-imidazole-1-carboxamide] | 0.017 | 121 | 2.1 | 53 | 92 | 70 | 92 | 0.17 | 17 | 73.8 | 4.9 | 2.1 | 1.2 |  |  |  | 
3 | CN(C(=O)n1cnc(-c2cccc(NC(N)=O)c2)c1)C1CCCC1 [Compound 1, N-Cyclopentyl-N-methyl-4-(3-ureidophenyl)-1H-imidazole-1-carboxamide] | 0.008 | 85.1 | 0.7 | 96 | 95 | 82 | 99 |  | 1.9 | 6.4 | 1.6 | 0.7 | 0.4 | 27 | 0.03 | > 2 | more than 10 fold
